Converted amounts (≈) assume the structure as drawn. Where a SMILES comes first, the peptide text is derived from it. Bridges are numbered along the chain shown (N, C = ends). Roman numbers before positions name the chains, in order. [ ]: non-standard residue; d: D form. Tle = CC(C)(C)[C@H](N)C(=O)O; d(hSer) = N[C@H](CCO)C(=O)O; dDab = NCC[C@@H](N)C(=O)O; Dab = NCC[C@H](N)C(=O)O; Abu = CC[C@H](N)C(=O)O; Dap = NC[C@H](N)C(=O)O
Assays:
[1] = tested on: human red blood cells (hRBC); assay: Hemolysis; assay type: cell-based; details: red cells of human, 1 h, 200
How it was run: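 Hemoglobin release from PBS-washed hRBC at 20% (v/v), incubated 1 h at 37° C with peptides at 200 μg/mL, is measured at 540 nm. Values are blank corrected and given as a fraction of Triton X-100 lysis × 100%.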

[2] = tested on: Klebsiella pneumoniae SSI #3010; assay type: cell-based; details: SSI #3010
How it was run: (§1)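 Two-fold peptide dilutions in polysorbate 80-containing (0.002% final) cation-adjusted Mueller-Hinton II broth were inoculated with about 10^6 CFU/mL. The MIC was taken as the lowest concentration, in μg/mL, preventing visible growth at 18-20 hours and 35° C.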

[3] = tested on: Enterobacter cloacae 848840; assay type: cell-based; details: 848840
How it was run: as §1

[4] = tested on: Acinetobacter baumannii DSM 30008; assay type: cell-based; details: DSM 30008
How it was run: as §1

[5] = tested on: Klebsiella pneumoniae 968733; assay type: cell-based; details: 968733
How it was run: as §1

[6] = tested on: Escherichia coli 926415; assay type: cell-based; details: 926415
How it was run: as §1

[7] = tested on: Acinetobacter baumannii 872842; assay type: cell-based; details: 872842
How it was run: as §1

[8] = tested on: Escherichia coli ATCC 25922; assay type: cell-based; details: ATCC 25922
How it was run: as §1

[9] = tested on: Pseudomonas aeruginosa ATCC 27853; assay type: cell-based; details: ATCC 27853
How it was run: as §1

[10] = tested on: male ICR mice; assay: Tolerability in a mouse model (Maximum Tolerated Dose assay); assay type: in vivo; details: groups of 3
Description: The tolerability of the peptides was tested in a mouse model at Pharmacology Discovery Services Taiwan Ltd, Taipei, Taiwan. The peptides were administered subcutaneously (s.c.) at 30 mg/kg or 40 mg/kg, respectively; twice at a 12-hr interval, for assessment of possible adverse effects in the Maximum Tolerated Dose (MTD) assay in male ICR (Institute of Cancer Research) mice. The peptides were dissolved in 0.9% NaCl at the concentrations either of 6 or 8 mg/mL, respectively, based on the free base molecular weight. The pH values of dosing solutions were adjusted to 6.5-7.6 before s.c. administration. A dosing volume at 5 mL/kg and a concentration of 6 or 8 mg/mL, respectively, was applied. The fresh prepared stock solution were stored at 4° C. during the study. Male ICR mice weighing 23±3 g were provided by BioLasco Taiwan (under Charles River Laboratories Licensee). Animals were acclimated for 3 days prior to use and were confirmed to be in good health. The peptides were administered s.c. at 30 mg/kg or 40 mg/kg, respectively, twice at a 12-hr interval, to groups of 3 ICR male mice and observed for the presence of acute toxic symptoms (mortality, convulsions, tremors, muscle relaxation, sedation, etc.) and autonomic effects (diarrhea, salivation, lacrimation, vasodilation, piloerection, etc.) during the first 30 min. The peptides were administered again at a 12-hr (two total doses) interval, following the first dose. The animals were then observed again for the presence of acute toxic symptoms and autonomic effects during the first 30 min.

[11] = 2 × 30 mg/kg s.c. at a 12-hr interval
[12] = 2 × 40 mg/kg s.c. at a 12-hr interval

Row | Compound | Hemolysis at 200 μg/mL [1] | MIC [2] | MIC [3] | MIC [4] | MIC [5] | MIC [6] | MIC [7] | MIC [8] | MIC [9] | Mortality and dose [10, 11] | Mortality and dose [10, 12] | Klebsiella pneumoniae SSI #3010 MIC [2] | Acinetobacter baumannii DSM 30008 MIC [4] | Escherichia coli ATCC 25922 MIC [8] | Pseudomonas aeruginosa ATCC 27853 MIC [9]
1 | CC(=O)N[C@H](C(=O)N[C@H]1CSSC[C@@H](C(=O)N[C@@H](CO)C(N)=O)NC(=O)[C@H](C(C)(C)C)NC(=O)[C@H](CO)NC(=O)[C@H](Cc2c[nH]c3ccccc23)NC(=O)[C@H](CO)NC(=O)[C@@H](CCN)NC(=O)[C@H](CCC(=O)N[C@@H](CCN)C(=O)N[C@H](C(=O)N[C@@H](CN)C(=O)N[C@H]2CCNC(=O)[C@H]([C@@H](C)O)NC(=O)[C@H](CCN)NC(=O)[C@H](CCN)NC(=O)[C@H](CC(C)C)NC(=O)[C@@H](CC(C)C)NC(=O)[C@H](CCN)NC2=O)[C@@H](C)O)NC(=O)[C@H](CCN)NC(=O)[C@H](Cc2ccc(O)cc2)NC1=O)C(C)C [Ex. 114] (I: Ac-VCY[Dab]E[dDab]SWS[Tle]CS-NH2 / II: [Dab]T[Dap][Dab][Dab][dL]L[Dab][Dab]T; disulfide I:2-I:11; amide I:5-II:N; lactam II:4-II:C) | <1% | 0.0625 µg/mL (≈ 0.0259 µM) | 0.0625 µg/mL (≈ 0.0259 µM) | 0.0625 µg/mL (≈ 0.0259 µM) | 0.0625 µg/mL (≈ 0.0259 µM) | 0.0625 µg/mL (≈ 0.0259 µM) | 0.03125 µg/mL (≈ 0.013 µM) | 0.03125 µg/mL (≈ 0.013 µM) | 0.125 µg/mL (≈ 0.0518 µM) | 0/3 died at 2 × 30 mg/kg | – | – | – | – | –
2 | CC[C@@H]1NC(=O)[C@@H](CC(C)C)NC(=O)[C@H](CCN)NC(=O)[C@@H](NC(=O)[C@H](CN)NC(=O)[C@@H](NC(=O)[C@H](CCN)NC(=O)CC[C@@H]2NC(=O)CNC(=O)[C@H](Cc3ccc(O)cc3)NC(=O)[C@@H](NC(=O)[C@@H](NC(C)=O)C(C)C)CSSC[C@@H](C(=O)N[C@@H](CO)C(N)=O)NC(=O)[C@H](C(C)C)NC(=O)[C@H](CCN)NC(=O)[C@H](Cc3c[nH]c4ccccc34)NC(=O)[C@H](CCN)NC(=O)[C@@H](CCO)NC2=O)[C@@H](C)O)CCNC(=O)[C@H]([C@@H](C)O)NC(=O)[C@H](CCN)NC(=O)[C@H](CCN)NC1=O [Ex. 298] (I: Ac-VCYGE[d(hSer)][Dab]W[Dab]VCS-NH2 / II: [Dab]T[Dap][Dab][Dab][dL][Abu][Dab][Dab]T; disulfide I:2-I:11; amide I:5-II:N; lactam II:4-II:C) | <1% | 0.0625 µg/mL (≈ 0.0265 µM) | 0.25 µg/mL (≈ 0.106 µM) | 0.0625 µg/mL (≈ 0.0265 µM) | 1 µg/mL (≈ 0.425 µM) | 0.5 µg/mL (≈ 0.212 µM) | 0.25 µg/mL (≈ 0.106 µM) | 0.03125 µg/mL (≈ 0.0133 µM) | 0.25 µg/mL (≈ 0.106 µM) | – | 0/3 died at 2 × 40 mg/kg | – | – | – | –
3 | CC[C@@H]1NC(=O)[C@H](CO)NC(=O)[C@H](Cc2c[nH]c3ccccc23)NC(=O)[C@H](CO)NC(=O)[C@@H](CCN)NC(=O)[C@H](CCC(=O)N[C@@H](CCN)C(=O)N[C@H](C(=O)N[C@@H](CN)C(=O)N[C@H]2CCNC(=O)[C@H]([C@@H](C)O)NC(=O)[C@H](CCN)NC(=O)[C@H](CCN)NC(=O)[C@H](CC)NC(=O)[C@@H](CC(C)C)NC(=O)[C@H](CCN)NC2=O)[C@@H](C)O)NC(=O)[C@H](CCN)NC(=O)[C@H](Cc2ccc(O)cc2)NC(=O)[C@@H](NC(=O)[C@@H](NC(C)=O)C(C)C)CSSC[C@@H](C(=O)N[C@@H](CO)C(N)=O)NC1=O [Ex. 339] (I: Ac-VCY[Dab]E[dDab]SWS[Abu]CS-NH2 / II: [Dab]T[Dap][Dab][Dab][dL][Abu][Dab][Dab]T; disulfide I:2-I:11; amide I:5-II:N; lactam II:4-II:C) | <1% | – | 0.125 µg/mL (≈ 0.053 µM) | – | 0.5 µg/mL (≈ 0.212 µM) | 0.5 µg/mL (≈ 0.212 µM) | 0.125 µg/mL (≈ 0.053 µM) | – | – | – | 0/3 died at 2 × 40 mg/kg | 0.0625 µg/mL | 0.0625 µg/mL | 0.0625 µg/mL | 0.125 µg/mL
4 | CC(=O)N[C@H](C(=O)N[C@H]1CCNC(=O)C[C@@H](C(=O)N[C@@H](CO)C(N)=O)NC(=O)[C@H](C(C)C)NC(=O)[C@H](CO)NC(=O)[C@H](Cc2c[nH]c3ccccc23)NC(=O)CNC(=O)[C@@H](CCN)NC(=O)[C@H](CCC(=O)N[C@@H](CCN)C(=O)N[C@H](C(=O)N[C@@H](CN)C(=O)N[C@H]2CCNC(=O)[C@H]([C@@H](C)O)NC(=O)[C@H](CCN)NC(=O)[C@H](CCN)NC(=O)[C@H](CC(C)C)NC(=O)[C@@H](CC(C)C)NC(=O)[C@H](CCN)NC2=O)[C@@H](C)O)NC(=O)[C@H](CCN)NC(=O)[C@H](Cc2ccc(O)cc2)NC1=O)C(C)C [Ex. 351] (I: Ac-V[Dab]Y[Dab]E[dDab]GWSVDS-NH2 / II: [Dab]T[Dap][Dab][Dab][dL]L[Dab][Dab]T; lactam I:2-I:11, II:4-II:C; amide I:5-II:N) | <1% | – | 0.25 µg/mL (≈ 0.106 µM) | – | 1 µg/mL (≈ 0.423 µM) | 0.5 µg/mL (≈ 0.212 µM) | 0.25 µg/mL (≈ 0.106 µM) | – | – | – | 0/3 died at 2 × 40 mg/kg | 0.0625 µg/mL | 0.0625 µg/mL | 0.0625 µg/mL | 0.125 µg/mL
5 | CC(=O)N[C@H](C(=O)N[C@H]1CSSC[C@@H](C(=O)N[C@@H](CO)C(=O)N[C@H](CO)C(N)=O)NC(=O)[C@H](C(C)C)NC(=O)[C@H](CO)NC(=O)[C@H](Cc2c[nH]c3ccccc23)NC(=O)[C@H](CO)NC(=O)[C@@H](CCN)NC(=O)[C@H](CCC(=O)N[C@@H](CCN)C(=O)N[C@H](C(=O)N[C@@H](CN)C(=O)N[C@H]2CCNC(=O)[C@H]([C@@H](C)O)NC(=O)[C@H](CCN)NC(=O)[C@H](CCN)NC(=O)[C@H](CC(C)C)NC(=O)[C@@H](CC(C)C)NC(=O)[C@H](CCN)NC2=O)[C@@H](C)O)NC(=O)[C@H](CCN)NC(=O)[C@H](Cc2ccc(O)cc2)NC1=O)C(C)C [Ex. 375] (I: Ac-VCY[Dab]E[dDab]SWSVCS[dS]-NH2 / II: [Dab]T[Dap][Dab][Dab][dL]L[Dab][Dab]T; disulfide I:2-I:11; amide I:5-II:N; lactam II:4-II:C) | <1% | – | 0.25 µg/mL (≈ 0.101 µM) | – | 0.125 µg/mL (≈ 0.0503 µM) | 0.125 µg/mL (≈ 0.0503 µM) | 0.0625 µg/mL (≈ 0.0251 µM) | – | – | – | 0/3 died at 2 × 40 mg/kg | 0.0625 µg/mL | 0.03125 µg/mL | 0.03125 µg/mL | 0.125 µg/mL
6 | CC[C@@H]1NC(=O)[C@@H](CC(C)C)NC(=O)[C@H](CCN)NC(=O)[C@@H](NC(=O)[C@H](CN)NC(=O)[C@@H](NC(=O)[C@H](CCN)NC(=O)CC[C@@H]2NC(=O)[C@H](CO)NC(=O)[C@H](Cc3ccc(O)cc3)NC(=O)[C@@H](NC(=O)[C@@H](NC(C)=O)C(C)C)CSSC[C@@H](C(=O)N[C@@H](CO)C(N)=O)NC(=O)[C@H]([C@@H](C)CC)NC(=O)[C@H](CO)NC(=O)[C@H](Cc3c[nH]c4ccccc34)NC(=O)[C@H](CCN)NC(=O)[C@@H](CCN)NC2=O)[C@@H](C)O)CCNC(=O)[C@H]([C@@H](C)O)NC(=O)[C@H](CCN)NC(=O)[C@H](CCN)NC1=O [Ex. 257] (I: Ac-VCYSE[dDab][Dab]WSICS-NH2 / II: [Dab]T[Dap][Dab][Dab][dL][Abu][Dab][Dab]T; disulfide I:2-I:11; amide I:5-II:N; lactam II:4-II:C) | 1% | 0.03125 µg/mL (≈ 0.0131 µM) | 0.0625 µg/mL (≈ 0.0262 µM) | 0.03125 µg/mL (≈ 0.0131 µM) | 0.125 µg/mL (≈ 0.0524 µM) | 0.0625 µg/mL (≈ 0.0262 µM) | 0.03125 µg/mL (≈ 0.0131 µM) | 0.03125 µg/mL (≈ 0.0131 µM) | 0.0625 µg/mL (≈ 0.0262 µM) | 0/3 died at 2 × 30 mg/kg | – | – | – | – | –

Reference: patent publication US11629171B2, “Beta-hairpin peptidomimetics” (POLYPHOR AG, priority 2017, dated 2023)
